Measurements as given in ChEMBL document CHEMBL5375943, “The Importance of Tracking "Missing" Metabolites: How and Why?” (J Med Chem, 2023).
One block for each compound: values may come before it.

Experiments:
[1] = Elimination half life in human liver microsomes; assay type: ADME, Microsome; settings: read-out: beta t1/2 (converted)
[2] = Oral bioavailability in ICR mouse plasma at 5 mg/kg by LC-MS/MS analysis; assay type: ADME, organism-based
[3] = AUC (0 to t) in Sprague-Dawley rat at 10 mg/kg, po; assay type: ADME, organism-based; design: dose 10 mg/kg, route po; settings: in vivo
Cytochrome P450 3A4 = Cytochrome P450 3A4 (Homo sapiens, UniProt P08684); assay: Inhibition of CYP3A4 in human liver microsome; assay type: ADME, microsomes
[4] = Clearance in Wistar rat at 3 mg/kg, iv incubated for 24 hrs by LC-MS/MS analysis; assay type: ADME, organism-based; settings: in vivo
[5] = Stability in human plasma assessed as compound remaining incubated for 10 mins relative to control; assay type: ADME, cell-free; settings: read-out: Stability
[6] = Elimination half life in human; assay type: ADME; settings: read-out: beta t1/2
[7] = Metabolic stability in human plasma assessed as half life

Cytochrome P450 3A4, sequence (P08684 whole entry): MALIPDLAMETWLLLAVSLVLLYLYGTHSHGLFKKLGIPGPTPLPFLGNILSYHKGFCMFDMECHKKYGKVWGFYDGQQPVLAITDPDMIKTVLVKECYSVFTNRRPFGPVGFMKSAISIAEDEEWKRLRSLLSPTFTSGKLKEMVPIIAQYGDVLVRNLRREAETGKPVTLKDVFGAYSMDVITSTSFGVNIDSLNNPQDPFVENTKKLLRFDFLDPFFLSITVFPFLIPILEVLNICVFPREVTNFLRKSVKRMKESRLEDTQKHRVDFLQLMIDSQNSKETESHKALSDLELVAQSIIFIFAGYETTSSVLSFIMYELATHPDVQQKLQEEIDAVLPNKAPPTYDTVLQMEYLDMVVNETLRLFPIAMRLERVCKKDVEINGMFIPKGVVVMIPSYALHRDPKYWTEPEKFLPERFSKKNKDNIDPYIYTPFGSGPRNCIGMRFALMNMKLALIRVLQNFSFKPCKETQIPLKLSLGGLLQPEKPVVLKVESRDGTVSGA

Compound: OC1CC(O)(CN2CCC(COc3noc4cccc(O[C@H]5CCOC5)c34)CC2)CCO1 (stereo partly specified)
IC50 (Cytochrome P450 3A4): 600 nM

Compound: NCCOP(=O)(O)OC[C@@H](O)CNC(=O)c1ccncc1Nc1ccc(I)cc1F
remaining at 10 min [5]: 30%

Compound: COc1ccc(Cl)cc1[C@]1(F)C(=O)Nc2cc(C(F)(F)F)ccc21 [FLINDOKALNER]
half-life [6]: > 168 h

Compound: COc1ccc2[nH]c([S+]([O-])Cc3ncc(C)c(OC)c3C)nc2c1 (stereo unspecified) [OMEPRAZOLE]
half-life [7]: 1 h

Second part, the compound after the results:

half-life [1]: 171 h
bioavailability [2]: 20.4%
Compound: C[C@H](OS(=O)(=O)O)[C@H]1CC[C@H]2[C@@H]3CC[C@H]4CC(C(=O)O)=CC[C@]4(C)[C@H]3CC[C@]12C

AUC(0-t) [3]: 0.19 µM·h
half-life [1]: 155 h
bioavailability [2]: 14.7%
Compound: CCc1cc(/C(C)=N/OCc2ccc(C3CCCCC3)c(C(F)(F)F)c2)ccc1CN1CC(C(=O)O[C@H]2CC[C@@]3(C)C(=CC[C@H]4[C@@H]5CC[C@H]([C@H](C)CCCC(C)C)[C@@]5(C)CC[C@@H]43)C2)C1

IC50 (Cytochrome P450 3A4): 550 nM
Compound: C[C@H](c1nc2ncccc2c(=O)n1-c1ccc(O)cc1)N(Cc1cccnc1)C(=O)Cc1ccc(OC(F)(F)F)cc1

clearance [4]: 0.4 mL/min/kg
Compound: C[C@H](O)[C@H]1CC[C@H]2[C@@H]3CC[C@H]4CC(C(=O)O)=CC[C@]4(C)[C@H]3CC[C@]12C
